The values below come from patent US20240398828A1, “HETERO-ATOM CONTAINING COMPOUNDS AND USES THEREOF” (Kumquat Biosciences Inc., priority 2021, published 2024).

One assay deals with T1, PTPN2 (i.e., TC-PTP) (Homo sapiens, UniProt P17706).
T1 sequence (P17706 1-415): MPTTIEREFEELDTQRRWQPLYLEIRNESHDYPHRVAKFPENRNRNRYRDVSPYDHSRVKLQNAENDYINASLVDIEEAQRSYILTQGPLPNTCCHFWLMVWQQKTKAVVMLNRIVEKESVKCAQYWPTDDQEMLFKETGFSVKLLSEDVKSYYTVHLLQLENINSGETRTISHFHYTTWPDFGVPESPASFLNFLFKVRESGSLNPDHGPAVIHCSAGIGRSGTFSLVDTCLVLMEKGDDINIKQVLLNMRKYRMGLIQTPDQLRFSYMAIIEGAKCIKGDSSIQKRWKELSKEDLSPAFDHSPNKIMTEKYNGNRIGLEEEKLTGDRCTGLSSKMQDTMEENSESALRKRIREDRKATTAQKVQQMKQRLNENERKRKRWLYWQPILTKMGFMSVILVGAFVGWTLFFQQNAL
The assay can be described thus: Phosphatase activity assay (DiFMUP substrate), PTPN2. It is filed as biochemical. As to conditions: compounds binned ≤1 uM or >1 uM. A digest of the protocol: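 Continuous fluorogenic readout of DiFMUP dephosphorylation at room temperature, substrate set at Km for each phosphatase (about 45 μM in the PTPN2 assay). The buffer contains 1 mM DTT and 0.001% Tween-20, pH 7.5.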

A further assay addresses T2, PTPN1 (i.e., PTP1B) (Homo sapiens, UniProt P18031).
T2 sequence (P18031 1-435): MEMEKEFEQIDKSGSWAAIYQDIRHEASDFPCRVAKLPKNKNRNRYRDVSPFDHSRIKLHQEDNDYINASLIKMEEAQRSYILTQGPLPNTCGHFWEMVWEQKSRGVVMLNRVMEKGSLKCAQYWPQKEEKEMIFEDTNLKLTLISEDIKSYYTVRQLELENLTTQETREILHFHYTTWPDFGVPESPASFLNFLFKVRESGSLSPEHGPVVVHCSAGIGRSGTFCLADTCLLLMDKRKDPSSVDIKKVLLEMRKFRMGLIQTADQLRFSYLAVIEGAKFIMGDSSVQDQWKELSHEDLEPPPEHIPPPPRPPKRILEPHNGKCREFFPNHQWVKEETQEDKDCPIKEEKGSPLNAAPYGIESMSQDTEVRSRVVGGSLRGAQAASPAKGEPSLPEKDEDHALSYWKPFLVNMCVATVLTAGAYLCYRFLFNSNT
The assay can be described thus: Phosphatase activity assay (DiFMUP substrate), PTP1B. It is filed as biochemical. As to conditions: compounds binned ≤1 uM or >1 uM. The method in brief:
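Enzyme (e.g. PTPN2 0.025 ng/ul) mixed about 2 min with compound at 10 serial concentrations in 50 mM HEPES pH 7.5, 150 mM NaCl, 0.5 mM EDTA, 1 mM DTT, 0.001% Tween-20 at room temperature. DiFMUP added at each enzyme's Km (about 45 μM for PTPN2). DiFMU fluorescence (ex 360/em 450 nm) followed 15-30 min; IC50 from 4-parameter fit of rates.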

What is called IC50 is the concentration that inhibits the measured activity by half. Consider `O=C1CN(c2c(O)ccc(-c3ccc4ocnc4c3)c2F)S(=O)(=O)N1` [Compound 170, 5-(3-(benzo[d]oxazol-5-yl)-2-fluoro-6-hydroxyphenyl)-1,2,5-thiadiazolidin-3-one 1,1-dioxide], for which the IC50 on PTPN2 (i.e., TC-PTP) was at most 1000 nM; on PTPN1 (i.e., PTP1B) it was at most 1000 nM.

Consider `O=C1CN(c2c(O)ccc(-c3cnn(CC4CCOCC4)c3)c2F)S(=O)(=O)N1` [Compound 171, 5-(2-fluoro-6-hydroxy-3-(1-((tetrahydro-2H-pyran-4-yl)methyl)-1H-pyrazol-4-yl)phenyl)-1,2,5-thiadiazolidin-3-one 1,1-dioxide], for which the IC50 on PTPN2 (i.e., TC-PTP) was at most 1000 nM; on PTPN1 (i.e., PTP1B), at most 1000 nM.

As to `COc1ccc(Cn2cc(-c3ccc(O)c(N4CC(=O)NS4(=O)=O)c3F)cn2)cc1` [Compound 172, 5-(2-fluoro-6-hydroxy-3-(1-(4-methoxybenzyl)-1H-pyrazol-4-yl)phenyl)-1,2,5-thiadiazolidin-3-one 1,1-dioxide], the IC50 on PTPN2 (i.e., TC-PTP) was at most 1000 nM; on PTPN1 (i.e., PTP1B), at most 1000 nM.

For `O=C1CN(c2c(O)ccc(-c3coc(-c4ccccc4)n3)c2F)S(=O)(=O)N1` [Compound 173, 5-(2-fluoro-6-hydroxy-3-(2-phenyloxazol-4-yl)phenyl)-1,2,5-thiadiazolidin-3-one 1,1-dioxide], the IC50 is at most 1000 nM at PTPN2 (i.e., TC-PTP) and at most 1000 nM at PTPN1 (i.e., PTP1B).

With `O=C1CN(c2c(O)ccc(-c3cnn(Cc4ccncc4)c3)c2F)S(=O)(=O)N1` [Compound 174, 5-(2-fluoro-6-hydroxy-3-(1-(pyridin-4-ylmethyl)-1H-pyrazol-4-yl)phenyl)-1,2,5-thiadiazolidin-3-one 1,1-dioxide], the IC50 on PTPN2 (i.e., TC-PTP) was at most 1000 nM; at PTPN1 (i.e., PTP1B), at most 1000 nM.

Regarding `CC(C)CCn1cc(-c2ccc(O)c(N3CC(=O)NS3(=O)=O)c2Cl)cn1` [Compound 175, 5-(2-chloro-6-hydroxy-3-(1-isopentyl-1H-pyrazol-4-yl)phenyl)-1,2,5-thiadiazolidin-3-one 1,1-dioxide], the IC50 at PTPN2 (i.e., TC-PTP) is at most 1000 nM; at PTPN1 (i.e., PTP1B) it was at most 1000 nM.

Take `O=C1CN(c2c(O)ccc(-c3cn(C4CC4)cn3)c2F)S(=O)(=O)N1` [Compound 176, 5-(3-(1-cyclopropyl-1H-imidazol-4-yl)-2-fluoro-6-hydroxyphenyl)-1,2,5-thiadiazolidin-3-one 1,1-dioxide]: the IC50 on PTPN2 (i.e., TC-PTP) was at most 1000 nM; on PTPN1 (i.e., PTP1B) it was at most 1000 nM.

As to `O=C1CN(c2c(O)ccc(-c3ccc(N4CCCC4)nc3)c2F)S(=O)(=O)N1` [Compound 177, 5-(2-fluoro-6-hydroxy-3-(6-(pyrrolidin-1-yl)pyridin-3-yl)phenyl)-1,2,5-thiadiazolidin-3-one 1,1-dioxide], the IC50 is at most 1000 nM on PTPN2 (i.e., TC-PTP) and at most 1000 nM on PTPN1 (i.e., PTP1B).

Consider `Cn1ncc(-c2ccc(O)c(N3CC(=O)NS3(=O)=O)c2F)n1` [Compound 178, 5-(2-fluoro-6-hydroxy-3-(2-methyl-2H-1,2,3-triazol-4-yl)phenyl)-1,2,5-thiadiazolidin-3-one 1,1-dioxide], for which the IC50 was at most 1000 nM at PTPN2 (i.e., TC-PTP) and at most 1000 nM at PTPN1 (i.e., PTP1B).

For `O=C1CN(c2c(O)ccc(-c3cnn(CC4CCCCC4)c3)c2F)S(=O)(=O)N1` [Compound 179, 5-(3-(1-(cyclohexylmethyl)-1H-pyrazol-4-yl)-2-fluoro-6-hydroxyphenyl)-1,2,5-thiadiazolidin-3-one 1,1-dioxide], the IC50 at PTPN2 (i.e., TC-PTP) was at most 1000 nM; at PTPN1 (i.e., PTP1B), at most 1000 nM.

On to `Cc1ccc(-c2ccc(O)c(N3CC(=O)NS3(=O)=O)c2F)cn1` [Compound 180, 5-(2-fluoro-6-hydroxy-3-(6-methylpyridin-3-yl)phenyl)-1,2,5-thiadiazolidin-3-one 1,1-dioxide], for which the IC50 at PTPN2 (i.e., TC-PTP) was at most 1000 nM; on PTPN1 (i.e., PTP1B) it was at most 1000 nM.

Take `O=C1CN(c2c(O)ccc(-c3cn(-c4cccc(F)c4)cn3)c2F)S(=O)(=O)N1` [Compound 181, 5-(2-fluoro-3-(1-(3-fluorophenyl)-1H-imidazol-4-yl)-6-hydroxyphenyl)-1,2,5-thiadiazolidin-3-one 1,1-dioxide]: the IC50 on PTPN2 (i.e., TC-PTP) was at most 1000 nM; at PTPN1 (i.e., PTP1B), at most 1000 nM.

With `Cc1cc(-c2ccc(O)c(N3CC(=O)NS3(=O)=O)c2F)on1` [Compound 182, 5-(2-fluoro-6-hydroxy-3-(3-methylisoxazol-5-yl)phenyl)-1,2,5-thiadiazolidin-3-one 1,1-dioxide], the IC50 at PTPN2 (i.e., TC-PTP) is at most 1000 nM; on PTPN1 (i.e., PTP1B), at most 1000 nM.

`Cc1cc(-c2ccc(O)c(N3CC(=O)NS3(=O)=O)c2F)[nH]n1` [Compound 183, 5-(2-fluoro-6-hydroxy-3-(3-methyl-1H-pyrazol-5-yl)phenyl)-1,2,5-thiadiazolidin-3-one 1,1-dioxide]: the IC50 on PTPN2 (i.e., TC-PTP) was at most 1000 nM; at PTPN1 (i.e., PTP1B), at most 1000 nM.

For `CC(C)CCn1cc(-c2cc(O)cc(N3CC(=O)NS3(=O)=O)c2)cn1` [Compound 184, 5-(3-hydroxy-5-(1-isopentyl-1H-pyrazol-4-yl)phenyl)-1,2,5-thiadiazolidin-3-one 1,1-dioxide], the IC50 is over 1000 nM on PTPN2 (i.e., TC-PTP) and over 1000 nM at PTPN1 (i.e., PTP1B).

For `Cn1ccc(-c2ccc(O)c(N3CC(=O)NS3(=O)=O)c2F)c1` [Compound 185, 5-(2-fluoro-6-hydroxy-3-(1-methyl-1H-pyrrol-3-yl)phenyl)-1,2,5-thiadiazolidin-3-one 1,1-dioxide], the half-inhibitory concentration (IC50) at PTPN2 (i.e., TC-PTP) was at most 1000 nM; at PTPN1 (i.e., PTP1B) it was at most 1000 nM.

Turning to `O=C1CN(c2c(O)ccc(-c3cnn(Cc4ccc(F)cc4)c3)c2F)S(=O)(=O)N1` [Compound 186, 5-(2-fluoro-3-(1-(4-fluorobenzyl)-1H-pyrazol-4-yl)-6-hydroxyphenyl)-1,2,5-thiadiazolidin-3-one 1,1-dioxide], the IC50 on PTPN2 (i.e., TC-PTP) was at most 1000 nM; on PTPN1 (i.e., PTP1B), at most 1000 nM.

Take `O=C1CN(c2c(O)ccc(-c3cnn(Cc4cccnc4)c3)c2F)S(=O)(=O)N1` [Compound 187, 5-(2-fluoro-6-hydroxy-3-(1-(pyridin-3-ylmethyl)-1H-pyrazol-4-yl)phenyl)-1,2,5-thiadiazolidin-3-one 1,1-dioxide]: the IC50 was at most 1000 nM on PTPN2 (i.e., TC-PTP) and at most 1000 nM on PTPN1 (i.e., PTP1B).

`O=C1CN(c2c(O)ccc(-c3cnn(Cc4ccc(Cl)cc4)c3)c2F)S(=O)(=O)N1` [Compound 189, 5-(3-(1-(4-chlorobenzyl)-1H-pyrazol-4-yl)-2-fluoro-6-hydroxyphenyl)-1,2,5-thiadiazolidin-3-one 1,1-dioxide]: the IC50 on PTPN2 (i.e., TC-PTP) was at most 1000 nM; at PTPN1 (i.e., PTP1B), at most 1000 nM.

Take `O=C1CN(c2c(O)ccc(-c3cn(-c4ccccc4)cn3)c2F)S(=O)(=O)N1` [Compound 190, 5-(2-fluoro-6-hydroxy-3-(1-phenyl-1H-imidazol-4-yl)phenyl)-1,2,5-thiadiazolidin-3-one 1,1-dioxide]: the IC50 on PTPN2 (i.e., TC-PTP) was at most 1000 nM; at PTPN1 (i.e., PTP1B), at most 1000 nM.

For the compound `Nc1nc2ccc(-c3ccc(O)c(N4CC(=O)NS4(=O)=O)c3F)cc2o1` [Compound 191, 5-(3-(2-aminobenzo[d]oxazol-6-yl)-2-fluoro-6-hydroxyphenyl)-1,2,5-thiadiazolidin-3-one 1,1-dioxide], the IC50 is at most 1000 nM on PTPN2 (i.e., TC-PTP) and at most 1000 nM at PTPN1 (i.e., PTP1B).

For `Cn1cc(-c2ccc(O)c(N3CC(=O)NS3(=O)=O)c2F)c(C(F)(F)F)n1` [Compound 192, 5-(2-fluoro-6-hydroxy-3-(1-methyl-3-(trifluoromethyl)-1H-pyrazol-4-yl)phenyl)-1,2,5-thiadiazolidin-3-one 1,1-dioxide], the IC50 on PTPN2 (i.e., TC-PTP) was over 1000 nM; at PTPN1 (i.e., PTP1B), at most 1000 nM.

`CC(C)CNc1ccc(-c2ccc(O)c(N3CC(=O)NS3(=O)=O)c2F)cc1` [Compound 193, 5-(2-fluoro-4-hydroxy-4′-(isobutylamino)-[1,1′-biphenyl]-3-yl)-1,2,5-thiadiazolidin-3-one 1,1-dioxide]: the IC50 on PTPN2 (i.e., TC-PTP) was at most 1000 nM; at PTPN1 (i.e., PTP1B), at most 1000 nM.

On to `O=C1CN(c2c(O)ccc(-c3cnn(C4CCC4)c3)c2F)S(=O)(=O)N1` [Compound 194, 5-(3-(1-cyclobutyl-1H-pyrazol-4-yl)-2-fluoro-6-hydroxyphenyl)-1,2,5-thiadiazolidin-3-one 1,1-dioxide], for which the IC50 at PTPN2 (i.e., TC-PTP) is at most 1000 nM; on PTPN1 (i.e., PTP1B), at most 1000 nM.

As to `O=C1CN(c2c(O)ccc(-c3cnn4ccccc34)c2F)S(=O)(=O)N1` [Compound 195, 5-(2-fluoro-6-hydroxy-3-(pyrazolo[1,5-a]pyridin-3-yl)phenyl)-1,2,5-thiadiazolidin-3-one 1,1-dioxide], the IC50 is at most 1000 nM on PTPN2 (i.e., TC-PTP) and at most 1000 nM at PTPN1 (i.e., PTP1B).

For the compound `CC(C)CCn1ccc(-c2ccc(O)c(N3CC(=O)NS3(=O)=O)c2F)n1` [Compound 196, 5-(2-fluoro-6-hydroxy-3-(1-isopentyl-1H-pyrazol-3-yl)phenyl)-1,2,5-thiadiazolidin-3-one 1,1-dioxide], the half-inhibitory concentration (IC50) at PTPN2 (i.e., TC-PTP) was at most 1000 nM; on PTPN1 (i.e., PTP1B), at most 1000 nM.
